Data set [1] can be described thus: Volume of distribution at steady state in rat. As to conditions: in vivo, read-out: Vdss. In kind it is ADME, organism-based.
Data set [2] can be described thus: Half life in rat. As to conditions: in vivo. Format: ADME, organism-based.
The nature of data set [3]: Permeability by PAMPA. Format: ADME. As to conditions: read-out: permeability. For orientation: PAMPA measures passive passage across an artificial lipid membrane.
Data set [4] in a line: Selectivity ratio of Ki for GABAA alpha-2-beta-3-gamma-2 receptor to Ki for GABAA alpha-5-beta-3-gamma-2 receptor.
Data set [5] is filed under the species Rattus norvegicus. Kind of data set: Toxicity in Lister hooded rat assessed as behavioral impairment. In kind it is organism-based. Particulars: in vivo.
Data set [6] can be described thus: Clearance in rat. Format: ADME, organism-based. Particulars: in vivo.
A short description of data set [7]: Oral bioavailability in rat. In kind it is ADME, organism-based. As to conditions: in vivo.
A short description of data set [8]: Ratio of drug level in brain to plasma in rat. In kind it is ADME, organism-based. Particulars: brain and plasma.
The nature of data set [9]: Solubility of the compound. Format: physicochemical.
A short description of data set [10]: Selectivity ratio of Ki for GABAA alpha-3-beta-3-gamma-2 receptor to Ki for GABAA alpha-5-beta-3-gamma-2 receptor.
Data set [11] is described as follows: Selectivity ratio of Ki for GABAA alpha-1-beta-3-gamma-2 receptor to Ki for GABAA alpha-5-beta-3-gamma-2 receptor.
Data set [12] can be described thus: Lipophilicity, log D at pH 7.4. Format: physicochemical. As to conditions: buffer.
The target of data set [13] is T1, GABA-A receptor; alpha-5/beta-3/gamma-2 (Homo sapiens, UniProt P18507+P28472+P31644).
T1 sequence (P18507 whole entry): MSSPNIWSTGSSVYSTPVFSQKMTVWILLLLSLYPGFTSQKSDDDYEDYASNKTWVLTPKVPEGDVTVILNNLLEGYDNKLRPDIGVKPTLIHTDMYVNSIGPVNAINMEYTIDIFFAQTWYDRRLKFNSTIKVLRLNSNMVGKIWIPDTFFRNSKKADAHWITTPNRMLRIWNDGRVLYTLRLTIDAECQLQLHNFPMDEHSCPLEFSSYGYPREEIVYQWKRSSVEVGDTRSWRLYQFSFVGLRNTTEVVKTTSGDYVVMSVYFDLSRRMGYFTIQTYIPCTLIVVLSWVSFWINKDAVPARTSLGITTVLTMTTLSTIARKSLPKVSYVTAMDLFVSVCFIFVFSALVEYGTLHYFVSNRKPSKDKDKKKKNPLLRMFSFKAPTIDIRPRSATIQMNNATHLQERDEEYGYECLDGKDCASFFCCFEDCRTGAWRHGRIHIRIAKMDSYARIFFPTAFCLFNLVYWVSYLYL
T1 sequence (P28472 whole entry): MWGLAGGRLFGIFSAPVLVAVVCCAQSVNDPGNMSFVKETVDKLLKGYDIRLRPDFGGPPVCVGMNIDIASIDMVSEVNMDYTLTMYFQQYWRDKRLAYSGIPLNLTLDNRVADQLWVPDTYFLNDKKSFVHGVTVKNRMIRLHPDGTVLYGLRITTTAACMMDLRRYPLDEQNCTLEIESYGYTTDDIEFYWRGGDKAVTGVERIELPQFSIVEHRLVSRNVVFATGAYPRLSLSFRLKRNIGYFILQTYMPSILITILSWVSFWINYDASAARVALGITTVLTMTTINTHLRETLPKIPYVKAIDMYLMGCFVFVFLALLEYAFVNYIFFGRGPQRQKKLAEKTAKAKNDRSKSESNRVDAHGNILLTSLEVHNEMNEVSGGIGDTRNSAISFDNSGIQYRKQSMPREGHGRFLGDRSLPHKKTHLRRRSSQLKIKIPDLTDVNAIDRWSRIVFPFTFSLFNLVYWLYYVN
T1 sequence (P31644 whole entry): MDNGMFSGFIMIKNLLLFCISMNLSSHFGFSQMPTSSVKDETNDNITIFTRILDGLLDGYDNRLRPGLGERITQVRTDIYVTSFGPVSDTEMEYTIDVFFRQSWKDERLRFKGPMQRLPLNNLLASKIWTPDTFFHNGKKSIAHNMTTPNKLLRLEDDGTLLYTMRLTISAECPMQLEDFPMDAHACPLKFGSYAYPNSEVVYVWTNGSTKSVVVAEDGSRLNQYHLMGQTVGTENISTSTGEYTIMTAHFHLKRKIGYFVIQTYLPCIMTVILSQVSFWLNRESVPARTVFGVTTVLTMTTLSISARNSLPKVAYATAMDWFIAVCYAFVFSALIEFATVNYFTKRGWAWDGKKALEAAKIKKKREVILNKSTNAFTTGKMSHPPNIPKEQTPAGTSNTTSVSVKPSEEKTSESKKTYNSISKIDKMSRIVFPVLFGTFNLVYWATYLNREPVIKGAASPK
Kind of data set: Displacement of [3H]flumazenil from GABAA alpha-5-beta-3-gamma-2 receptor. In kind it is protein-complex assay.

For data set [14], the target named is GABA-A receptor; alpha-5/beta-3/gamma-2 (Homo sapiens) (UniProt P18507+P28472+P31644). Description: Inverse agonist activity at GABAA alpha-5-beta-3-gamma-2 receptor assessed as modulation of GABA-induced chloride ion flux by electrophysiology assay relative to GABA. In kind it is functional.
The subject of data set [15] is Liver microsomes. Description: Clearance in rat liver microsomes. In kind it is ADME, Microsome. In general terms: Liver microsomes are vesicles of endoplasmic reticulum, rich in cytochrome P450 enzymes.
The test system of data set [16] is Rattus norvegicus. Kind of data set: Behavioral effect in Lister hooded rat assessed as reversal of Scopolamine-induced impairment of working memory at 1 mg/kg, po administered 30 mins before Scopolamine challenge by delayed match to position test. In kind it is functional, organism-based. The arrangement: dose 1 mg/kg.
Data set [17] deals with T2, GABA-A receptor; alpha-3/beta-3/gamma-2 (Homo sapiens, UniProt P18507+P28472+P34903).
T2 sequence (P18507 whole entry): T1 sequence (P18507 whole entry)
T2 sequence (P28472 whole entry): T1 sequence (P28472 whole entry)
T2 sequence (P34903 whole entry): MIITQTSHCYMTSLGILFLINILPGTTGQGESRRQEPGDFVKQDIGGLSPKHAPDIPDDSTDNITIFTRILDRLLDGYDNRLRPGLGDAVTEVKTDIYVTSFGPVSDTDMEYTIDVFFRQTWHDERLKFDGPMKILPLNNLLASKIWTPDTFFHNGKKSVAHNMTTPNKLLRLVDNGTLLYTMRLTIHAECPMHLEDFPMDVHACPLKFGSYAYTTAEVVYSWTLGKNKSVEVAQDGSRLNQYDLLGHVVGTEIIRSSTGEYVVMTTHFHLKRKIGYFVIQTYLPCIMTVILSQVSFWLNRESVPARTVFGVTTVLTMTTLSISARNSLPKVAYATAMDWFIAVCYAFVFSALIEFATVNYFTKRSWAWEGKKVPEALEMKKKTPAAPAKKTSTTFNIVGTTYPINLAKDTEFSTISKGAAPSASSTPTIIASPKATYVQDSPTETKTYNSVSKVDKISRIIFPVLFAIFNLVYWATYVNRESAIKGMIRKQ
Description: Displacement of [3H]flumazenil from GABAA alpha-3-beta-3-gamma-2 receptor. Format: protein-complex assay. Background: In a radioligand displacement assay an active substance lowers the binding of a labelled ligand.

In data set [18] the test system is Liver microsomes. Kind of data set: Clearance in human liver microsomes. Format: ADME, Microsome.
For data set [19], the system named is Rattus norvegicus. Description: Behavioral effect in Lister hooded rat assessed as inhibition of scopolamine-induced impairment of working memory at 1 to 3 mg/kg, po after 30 mins by delayed match to position test. Format: functional, organism-based.
The subject of data set [20] is Rattus norvegicus. Kind of data set: Behavioral effect in Lister hooded rat assessed as reversal of Scopolamine-induced impairment of working memory at 1 to 3 mg/kg, ip administered 30 mins before Scopolamine challenge by delayed match to position test. Format: functional, organism-based.
Data set [21] has as its target T3, GABA-A receptor; alpha-2/beta-3/gamma-2 (Homo sapiens, UniProt P18507+P28472+P47869).
T3 sequence (P18507 whole entry): T1 sequence (P18507 whole entry)
T3 sequence (P28472 whole entry): T1 sequence (P28472 whole entry)
T3 sequence (P47869 whole entry): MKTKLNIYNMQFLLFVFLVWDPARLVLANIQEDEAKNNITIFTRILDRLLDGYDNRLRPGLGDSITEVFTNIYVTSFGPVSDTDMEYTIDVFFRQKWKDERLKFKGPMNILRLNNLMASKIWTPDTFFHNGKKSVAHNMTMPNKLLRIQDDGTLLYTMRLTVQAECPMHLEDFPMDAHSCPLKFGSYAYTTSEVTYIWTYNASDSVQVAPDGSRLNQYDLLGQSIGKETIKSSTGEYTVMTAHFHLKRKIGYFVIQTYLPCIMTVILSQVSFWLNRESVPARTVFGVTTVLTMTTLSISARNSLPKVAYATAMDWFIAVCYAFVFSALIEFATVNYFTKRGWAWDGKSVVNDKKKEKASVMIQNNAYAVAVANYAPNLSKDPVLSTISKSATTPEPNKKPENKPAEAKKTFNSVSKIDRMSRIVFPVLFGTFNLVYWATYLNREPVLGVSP
Kind of data set: Displacement of [3H]flumazenil from GABAA alpha-2-beta-3-gamma-2 receptor. In kind it is protein-complex assay.

The target in data set [22] is T4, GABA-A receptor; alpha-1/beta-3/gamma-2 (Homo sapiens, UniProt P14867+P18507+P28472).
T4 sequence (P14867 whole entry): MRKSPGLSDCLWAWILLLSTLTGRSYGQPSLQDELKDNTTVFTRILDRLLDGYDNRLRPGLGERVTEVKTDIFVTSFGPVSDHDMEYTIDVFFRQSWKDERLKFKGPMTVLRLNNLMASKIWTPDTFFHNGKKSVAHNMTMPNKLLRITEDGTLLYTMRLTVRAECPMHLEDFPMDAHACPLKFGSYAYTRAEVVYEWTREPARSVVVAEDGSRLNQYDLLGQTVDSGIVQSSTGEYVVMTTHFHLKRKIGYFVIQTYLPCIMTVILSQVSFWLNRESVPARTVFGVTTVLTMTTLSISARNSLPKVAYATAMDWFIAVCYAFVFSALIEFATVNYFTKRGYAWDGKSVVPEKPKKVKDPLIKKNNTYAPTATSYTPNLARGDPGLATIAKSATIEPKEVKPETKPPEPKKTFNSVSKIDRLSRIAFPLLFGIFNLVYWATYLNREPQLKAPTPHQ
T4 sequence (P18507 whole entry): T1 sequence (P18507 whole entry)
T4 sequence (P28472 whole entry): T1 sequence (P28472 whole entry)
Description: Displacement of [3H]flumazenil from GABAA alpha-1-beta-3-gamma-2 receptor. In kind it is protein-complex assay.

Here are results for 2 molecules from ChEMBL document CHEMBL1154267, “Imidazo[1,5-a][1,2,4]-triazolo[1,5-d][1,4]benzodiazepines as potent and highly selective GABAA alpha5 inverse agonists with potential for the treatment of cognitive dysfunction” (Bioorg Med Chem Lett, 2009).

The structures appear in SMILES notation. pKi: −log10 of the molar value. Converted amounts (≈) assume the structure as drawn. The source made the active and inactive calls. The rule behind the calls is not given here.

Broadly, the half-life is the time in which the quantity being followed falls by half. For orientation: clearance means the volume of plasma or blood freed of the substance per unit of time. In general, bioavailability refers to dose-corrected exposure relative to a reference, in per cent. By Kp is commonly meant the ratio of the level in a tissue or fluid to that in plasma or blood. What is called solubility is the dissolved amount per volume that the medium holds. Low readings indicate little dissolved substance, high ones much dissolved substance. As usually defined, the logD is lipophilicity at a set pH, counting ionised and neutral species. Broadly, the pKi is the Ki on a negative log10 scale, so that one unit is a factor of ten. A low value points to a high Ki. On to `Cc1cc(Cc2nc3n(n2)Cc2c(C)ncn2-c2ccc(Cl)cc2-3)on1`, for which the Vd in [1] was determined as 1.8 L/kg. For the same molecule, the half-life in [2] was 1.4 h. Moreover, the Papp in data set [3] turned out to be 3.1 ×10⁻⁶ cm/s. The Ratio Ki in data set [4] was 251; in data set [10], 223; in data set [11], 466. Besides, the Activity result in the data set filed under Rattus norvegicus [5] is recorded as “Non-toxic”. In addition, the clearance in [6] stood at 9.5 mL/min/kg. The same molecule yielded a bioavailability in data set [7] of 44%. In data set [8], the Kp came out at 1. Further, the solubility in data set [9] was found to be 14 µg/mL (≈ 38.2 µM). The logD in data set [12] was determined as 2.3. The molecule further showed a pKi in [13] of 9.22. The Efficacy in data set [14] was -18%. For the same molecule, in the data set on Liver microsomes [15], the CL turned out to be 6000 µL/min/mg. The result with Rattus norvegicus [16] was Active.
`Cc1ncn2c1Cn1nc(CN3CCCC3=O)nc1-c1cc(Br)ccc1-2`: the Vd in data set [1] worked out at 1.3 L/kg. The pKi in data set [17] is 6.29; in [21], 6.17; in [13], 8.15; in data set [22] it was 6.20. Besides, the half-life in data set [2] was 0.8 h. This molecule also showed a CL with Liver microsomes [18] of 3000 µL/min/mg. For the same molecule, the result in the data set on Rattus norvegicus [19] was inactive. Besides, in [3], the Papp is 1.5 ×10⁻⁶ cm/s. Also, the clearance in [6] is 30 mL/min/kg. Also, the bioavailability in data set [7] worked out at 32%. In addition, the Kp in data set [8] turned out to be 0.09. Besides, in data set [9], the solubility is 550 µg/mL (≈ 1330 µM). In addition, in the data set on Rattus norvegicus [20], the Activity entry was “Dose-dependent effect”. The same molecule returned a logD in [12] of 1.5. The Efficacy in data set [14] was -34%.
